Source: article PMC8433052 (iScience, 2021)
Where two headings read alike, the source gives them in different places.

Key:
[1] = molecular target: Recombinant ZIKV NS5 protein (ZIKV RdRp) (Zika virus, UniProt A0A024B7W1); assay: Primer extension polymerase activity assay; format: biochemical; details: RNA P/T, then ATP, GTP, CTP, UTP 100 μM each, 30°C 2 h; 3′-dATP 100 μM, HMTU-TP 0.025-1.6 mM
Procedure: To generate RNA primer-template complexes (RNA P/T), 0.5 μM fluorescently labeled RNA primer and 2 μM unlabeled RNA template were mixed in 50 mM NaCl, incubated at 95°C for 10 min, and then slowly cooled down to room temperature. The annealed RNA P/T was stored at -30°C before use in the primer extension assay.
The primer extension assay was performed according to a previous report ([Lu et al., 2017]). For analysis of the competitive inhibition ability of HMTU-TP, 200 nM of recombinant ZIKV NS5 (Sino Biological) and 50 nM RNA P/T were incubated 30°C for 15 min in reaction buffer [10 mM Tris-HCl (pH 7.5), 10 mM DTT, 5 mM MgCl2, 5% glycerol, 0.05% Triton-X 100, and 0.02 U/μL RNasein (Promega)], and then ATP analogs [500 μM ATP (Thermo Fischer Scientific), 100 μM 3’-dATP (TriLink), or serially diluted HMTU-TP (0.025, 0.1, 0.4 or 1.6 mM)] were added and incubated at 30°C for 10 min. Primer extension reactions were initiated by the addition of ATP, GTP, CTP and UTP (100 μM each). The reactions were performed 30°C for 2 h and stopped by the addition of quenching buffer (7M Urea, 1X TBE buffer, and 50 mM EDTA). The quenched samples were denatured at 95°C for 5 min, and the primer extension products were separated on a 15% denaturing polyacrylamide gel (Invitrogen). […] The band intensities were analyzed by ImageQuant TL version 8.2.0 (Cytiva).

HCoV-OC43 [2] = format: cell-based, Human coronavirus OC43
SARS-CoV [3] = format: cell-based; details: MRC5/ACE2 cells, 1 μM, 48 hpi
DENV2 = assay: CPE-based antiviral assay (resazurin), DENV2 in BHK-21; format: cell-based, Dengue virus 2; details: Dengue virus, DENV2, BHK-21, 96 h, read-out: EC50 against DENV2
ZIKV = assay: CPE-based antiviral assay (MTT), ZIKV in BHK-21; format: cell-based; details: Zika virus, BHK-21, 72 h, read-out: EC50 against ZIKV
YFV = assay: microbe, parasite or virus in culture; format: cell-based; details: Yellow fever virus, BHK-21, 72 h, read-out: EC50 against YFV
DENV1 = assay: CPE-based antiviral assay (resazurin), DENV1 in BHK-21; format: cell-based, Dengue virus 1; details: Dengue virus, DENV1, BHK-21, 120 h, read-out: EC50 against DENV1
JEV = assay: CPE-based antiviral assay (MTT), JEV in BHK-21; format: cell-based; details: Japanese encephalitis virus, BHK-21, 72 h, read-out: EC50 against JEV
HCoV-OC43 [4] = assay: Resazurin reduction assay, HCoV-OC43-infected MRC5 cells
DENV4 = assay: CPE-based antiviral assay (resazurin), DENV4 in BHK-21; format: cell-based, Dengue virus 4; details: Dengue virus, DENV4, BHK-21, 120 h, read-out: EC50 against DENV4
SARS-CoV [5] = format: cell-based; details: Caco-2 cells, MOI 0.1, 48 hpi
HCoV-229E [6] = assay: Resazurin reduction assay, HCoV-229E-infected MRC5 cells; details: for EC50: Human coronavirus 229E
[7] = Cytotoxicity against Caco-2 cells; format: cell-based; details: human
Procedure: (§1) The MTT (3-[4,5-dimethyl-2-thiazolyl]-2,5-diphenyl-2H-tetrazolium bromide) and resazurin reduction assays were carried out as previously described ([Nobori et al., 2018]; [Sanaki et al., 2019]). These were performed to calculate cell viability following viral induced CPE or cytotoxicity. Assay conditions for flaviviruses are as described in Table 2.

WNV = assay: CPE-based antiviral assay (MTT), WNV in BHK-21; format: cell-based; details: West Nile virus, BHK-21, 72 h, read-out: EC50 against WNV
[8] = Cytotoxicity against MRC5 cells; format: cell-based, Human; details: human, rescreening (Table 3), read-out: CC50
Procedure: as §1

MRC5 cells = assay: Cytotoxicity against MRC5 cells; format: cell-based, Human; details: mean from three independent experiments (Table 4), read-out: CC50 MRC5, mean
Procedure: as §1

DENV3 = assay: CPE-based antiviral assay (resazurin), DENV3 in BHK-21; format: cell-based, Dengue virus 3; details: Dengue virus, DENV3, BHK-21, 120 h, read-out: EC50 against DENV3
[9] = Cytotoxicity against Huh7 cells; format: cell-based; details: human
Procedure: as §1

SARS-CoV-2 [10] = assay: qRT-PCR analysis of SARS-CoV-2 in Caco-2 cells (rescreening, supernatant viral RNA); format: cell-based; details: Severe acute respiratory syndrome coronavirus 2; qRT-PCR analysis using Caco-2 cells, MOI 0.1, 48 h
[11] = Cytotoxicity against VeroE6/TMPRSS2 cells; format: cell-based; details: African green monkey
Procedure: as §1

HCoV-OC43 [12] = assay: qRT-PCR of viral RNA, HCoV-OC43-infected Huh7 cells; format: cell-based, Human coronavirus OC43; details: MOI 0.1, 48 hpi, serially diluted compound
SARS-CoV-2 [13] = assay: qRT-PCR of viral RNA, SARS-CoV-2-infected Caco-2 cells; format: cell-based; details: MOI 0.1, 48 hpi
[14] = Cytotoxicity against A549/TMPRSS2 cells; format: cell-based; details: human
Procedure: as §1

SARS-CoV-2 [15] = assay: Immunofluorescence assay of viral spike protein, SARS-CoV-2 in MRC5/ACE2 cells; format: cell-based
SARS-CoV [16] = format: cell-based; details: supernatants of SARS-CoV-infected Caco-2 cells, 0.5 μM, 48 hpi
SARS-CoV-2 [17] = format: cell-based
[18] = Cytotoxicity assay in BHK-21 cells; format: cell-based, Hamster; details: hamster
BHK-21 cells = assay: Cytotoxicity assay in BHK-21 cells; format: cell-based, Hamster; details: concentrations up to 20 μM
HCoV-229E [19] = assay: qRT-PCR of viral RNA, HCoV-229E-infected Huh7 cells; format: cell-based, Human coronavirus 229E; details: MOI 0.05, 48 hpi, serially diluted compound
HCoV-OC43 [20] = assay: Immunofluorescence assay of viral nucleoprotein, HCoV-OC43 in A549/TMPRSS2 cells; format: cell-based, Human coronavirus OC43; details: HCoV-OC43 MOI 1, 48 hpi
SARS-CoV-2 [21] = assay: Time-of-addition assay, SARS-CoV-2 in Caco-2 cells; format: cell-based; details: 1 μM added at 3 hpi, read at 24 hpi
Procedure: The time-of-addition assay was performed according to previous reports ([Ohashi et al., 2021]; [Wang et al., 2020]). Briefly, Caco-2 cells were seeded on the day before SARS-CoV-2 infection (MOI of 0.1) and compound treatment. One micromolar HMTU or DMSO was then added at the indicated time points (Whole, Entry, and Post-entry). For “Whole” treatment, the cells were incubated with both the compound and virus for 1 h. After incubation, unbound viruses were removed, and the cells were cultured with HMTU-containing medium for 2 h to allow viral entry. At 3 hpi, culture supernatants were replaced with new HMTU-containing media and maintained until the end of the experiment. For “Entry” treatment, the cells were incubated as described above, and at 3 hpi, HMTU-containing media were replaced with fresh culture media and maintained until the end of the experiments. For “Post-entry” treatment, HMTU was added to the virus-infected cells at 3 hpi and maintained until the end of the experiment. At 24 hpi, total RNA was isolated, and viral RNA was quantified using qRT–PCR analysis as described above. Supernatants were collected, after which serial dilutions of these supernatants were used to inoculate a monolayer of the VeroE6/TMPRSS2 cells. Three days after inoculation, the CPE was scored, and TCID50/mL was calculated to measure viral titers.

rats = test system: rats; parameters: method as in Lim et al., 2015; Yin et al., 2009; details: dosed orally, preclinical, ref Lim et al., 2015, Yin et al., 2009; cited from earlier work
dogs = test system: dogs; parameters: method as in Lim et al., 2015; Yin et al., 2009; details: dosed orally, preclinical, ref Lim et al., 2015, Yin et al., 2009; cited from earlier work
[22] = MRC5 cells, resazurin reduction assay

Recombinant ZIKV NS5 protein (ZIKV RdRp), sequence (A0A024B7W1 2521-3423): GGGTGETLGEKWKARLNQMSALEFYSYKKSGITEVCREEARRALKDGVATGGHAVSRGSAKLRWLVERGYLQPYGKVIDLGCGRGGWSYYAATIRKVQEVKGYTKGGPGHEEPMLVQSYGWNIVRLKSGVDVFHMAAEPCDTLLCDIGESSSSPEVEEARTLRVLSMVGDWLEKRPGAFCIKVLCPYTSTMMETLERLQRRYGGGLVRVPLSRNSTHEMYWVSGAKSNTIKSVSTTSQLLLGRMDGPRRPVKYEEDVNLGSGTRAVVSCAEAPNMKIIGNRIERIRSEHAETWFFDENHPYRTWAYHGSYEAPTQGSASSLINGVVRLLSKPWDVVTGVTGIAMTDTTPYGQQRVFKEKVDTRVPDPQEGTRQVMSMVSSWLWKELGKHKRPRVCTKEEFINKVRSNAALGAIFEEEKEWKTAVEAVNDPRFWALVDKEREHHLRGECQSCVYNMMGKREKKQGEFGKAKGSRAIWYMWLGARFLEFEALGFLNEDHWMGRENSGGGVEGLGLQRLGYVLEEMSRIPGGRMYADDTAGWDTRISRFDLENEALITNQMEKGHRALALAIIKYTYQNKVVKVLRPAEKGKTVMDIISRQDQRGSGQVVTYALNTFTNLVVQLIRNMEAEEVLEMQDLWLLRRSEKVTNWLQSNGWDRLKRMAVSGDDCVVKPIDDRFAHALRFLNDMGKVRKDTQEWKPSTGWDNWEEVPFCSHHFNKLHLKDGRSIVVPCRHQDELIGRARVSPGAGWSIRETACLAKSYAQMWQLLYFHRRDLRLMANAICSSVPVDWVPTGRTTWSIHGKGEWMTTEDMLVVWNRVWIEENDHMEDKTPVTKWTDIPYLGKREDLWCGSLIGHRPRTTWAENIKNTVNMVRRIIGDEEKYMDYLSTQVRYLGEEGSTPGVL

In the case of Nc1ncnc2c1ncn2[C@@H]1O[C@H](COP(=O)(O)OP(=O)(O)OP(=O)(O)O)C[C@H]1O [3′-dATP, 3'-Deoxyadenosine-5'-Triphosphate, reference compound], the “effect on RNA extension by ZIKV RdRp” value [1] is reported as “prevented RNA extension”.

With Nc1ncnc2c1c(CO)cn2C1OC(COP(=O)(O)OP(=O)(O)OP(=O)(O)O)C(O)C1O (stereo not shown) [HMTU-TP, HMTU 5′-triphosphate] the “effect on RNA extension by ZIKV RdRp” value [1] was “incorporated into RNA template, resulting in chain termination”.

With Nc1ncnc2c1c(CO)cn2[C@@H]1O[C@H](CO)[C@@H](O)[C@H]1O [HUP1108, 5-hydroxymethyltubercidin] the “reduction in progeny virus titer” value (HCoV-OC43 [2]) was over 1 log, the “viral spike protein expression (IFA)” value (SARS-CoV [3]) was “significantly inhibited” and the EC50 (DENV2) was 0.24 µM. For the same compound, the EC50 (ZIKV) was 1.3 µM, the EC50 (YFV) was 0.27 µM and the EC50 (DENV1) was 0.35 µM. It also gave an EC50 (JEV) of 0.5 µM, an EC50 (HCoV-OC43 [4]; Betacoronavirus 1, OC43, MRC5, read-out: HCoV-OC43 EC50) of 0.35 µM and an EC50 (HCoV-OC43 [4]; Betacoronavirus 1, OC43, MRC5, read-out: HCoV-OC43 EC50, mean) of 0.378 µM. The “selectivity index (SI = CC50/EC50) for HCoV-OC43” value (HCoV-OC43 [4]; MRC5 cells) was over 132, the “anti-HCoV-OC43 activity (in words)” value (HCoV-OC43 [4]; [22]) was “strong antiviral activities” and the EC50 (DENV4) was 0.52 µM. The “SARS-CoV RNA replication, subgenomic (nucleocapsid) and genomic (RdRp) transcripts” value (SARS-CoV [5]) was “inhibited in a dose-dependent manner”, the EC50 (HCoV-229E [6]; MRC5, read-out: HCoV-229E EC50) was 0.43 µM and the EC50 (HCoV-229E [6]; MRC5, read-out: HCoV-229E EC50, mean) was 0.528 µM. For the same compound, the “selectivity index (SI = CC50/EC50) for HCoV-229E” value (HCoV-229E [6]; MRC5 cells) was over 94, the “anti-HCoV-229E activity (in words)” value (HCoV-229E [6]; [22]) was “strong antiviral activities” and the CC50 [7] was over 20 µM. It also gave an EC50 (WNV) of 0.95 µM, a CC50 [8] of over 50 µM and a CC50 (MRC5 cells) of over 50 µM. For the same compound, the EC50 (DENV3) was 0.42 µM, the CC50 [9] was over 20 µM and the EC90 (SARS-CoV-2 [10]) was 0.57 µM. For the same compound, the CC50 [11] was over 20 µM, the “HCoV-OC43 replication, subgenomic (nucleocapsid) and genomic (ORF1b) RNA transcripts” value (HCoV-OC43 [12]) was “dose-dependent inhibition” and the “SARS-CoV-2 RNA replication, subgenomic (nucleocapsid) and genomic (RdRp) transcripts” value (SARS-CoV-2 [13]) was “inhibited in a dose-dependent manner”. For the same compound, the CC50 [14] was over 20 µM, the “viral spike protein expression (IFA)” value (SARS-CoV-2 [15]) was “significantly inhibited” and the “reduction of progeny virus titer” value (SARS-CoV [16]) was “more than 1 log TCID50/mL”. The “reduction of progeny virus titer” value (SARS-CoV-2 [17]) was “more than 1 log TCID50/mL”, the CC50 [18] was over 20 µM and the “cytotoxicity (in words)” value (BHK-21 cells) was “did not exhibit cytotoxicity”. The “HCoV-229E replication, subgenomic (nucleocapsid) and genomic (ORF1b) RNA transcripts” value (HCoV-229E [19]) was “dose-dependent inhibition”, the “positive signals of viral nucleoprotein (IFA)” value (HCoV-OC43 [20]) was “decreased in a dose-dependent fashion” and the “intracellular and extracellular viral RNAs, post-entry step” value (SARS-CoV-2 [21]) was “significantly reduced”.

In the case of C#C[C@@]1(O)[C@H](O)[C@@H](CO)O[C@H]1n1ccc2c(N)ncnc21 [NITD-008, 2′-C-ethynyltubercidin], the toxicity (rats) is listed as “significant toxicity” and the toxicity (dogs) is listed as “significant toxicity”.
